Assay results: patent US8133888B2, “Hydrazide containing taxane conjugates” (Sun Pharma Advanced Research Company Ltd., priority 2008, dated 2012)

How the values were obtained:
[1] = Solubility of the taxane conjugates in water with added acid (visual clarity); format: physicochemical; details: 2 mg dispersed in 0.5 ml water, sonicated, 20 μl of 2.5M HCl added, sonicated about 2 min
Method: About 2 mg of the taxane conjugate of formula I was dispersed in 0.5 ml water (sterile) and sonicated for about 2 min. Small aliquots of a pharmaceutically accepted acid was added, sonicated for 2-3 min after each addition and observed for visual clarity.
For example, 2 mg of compound I.03 was dispersed in 0.5 ml water and sonicated for about 2 min.

[2] = Conversion of compound of formula I to the active taxane compound in human plasma (LC-MS/MS); format: in vitro ADME; details: 37° C.; for Peak Area of test compound / % Unconverted Compound I.04: human plasma; for Peak Area of docetaxel formed: docetaxel released from compound I.04 in human plasma
Method: The conversion of the test compound I.04 of the present invention to the active/parent taxane compound was determined in the human plasma sample. The test compound of 2000 ng per nil concentration was added to human plasma at ambient temperature and was kept in an incubator maintained at 37° C. Aliquots of this plasma sample were taken at definite time intervals and subjected to LC-MS/MS analysis. The samples were analyzed for amount of unconverted test compound and the amount of docetaxel formed in the test solution using LC-MS/MS operating in selected reaction monitoring (SRM) mode, as per follows: • Column: Hypurity Aquastar C-18, 50×2.1 mm, 3 micron • Mobile Phase: 10 mmol ammonium acetate-acetonitrile, 40:60 • Flow Rate: 250 μl/min • Oven Temperature: 45° C. • Retention time of compound I.04: 13.9 min • Retention time of docetaxel: 0.79 min
The parent ions>product ions monitored were the following: […]

[3] = cited from earlier work

Compound: CC(=O)O[C@@]12CO[C@@H]1C[C@H](OC(=O)CCC(=O)NN1CCCCC1)[C@@]1(C)C(=O)[C@H](O)C3=C(C)[C@@H](OC(=O)[C@H](OC(=O)CCC(=O)NN4CCCCC4)[C@@H](NC(=O)OC(C)(C)C)c4ccccc4)C[C@@](O)([C@@H](OC(=O)c4ccccc4)[C@H]21)C3(C)C [Compound I.03, 10-Deacetyl-N-debenzoyl-N-(tert-butyloxycarbonyl)-2′,7-bis[(N-piperidin-1-yl)succinamidoyl]taxol]
- Solubility, visual clarity [1]: clear solution

Compound: CC(=O)O[C@@]12CO[C@@H]1C[C@H](O)[C@@]1(C)C(=O)[C@H](O)C3=C(C)[C@@H](OC(=O)[C@H](OC(=O)CCC(=O)NN4CCCCC4)[C@@H](NC(=O)OC(C)(C)C)c4ccccc4)C[C@@](O)([C@@H](OC(=O)c4ccccc4)[C@H]21)C3(C)C [Compound I.04, 10-Deacetyl-N-debenzoyl-N-(tert-butyloxycarbonyl)-2′-[(N-piperidin-1-yl)-succinamidoyl]taxol]
- Peak Area of test compound ([2]; time 0 hrs): 24696932.5 counts
- % Unconverted Compound I.04 ([2]; time 0.0 hrs): 100%
- % Unconverted Compound I.04 ([2]; time 0.5 hrs): 59.1%
- Peak Area of test compound ([2]; time 0.5 hrs): 19303514.4 counts
- Peak Area of test compound ([2]; time 1 hrs): 16791382.3 counts
- % Unconverted Compound I.04 ([2]; time 1.0 hrs): 40.3%
- Peak Area of test compound ([2]; time 2 hrs): 11789443.5 counts
- % Unconverted Compound I.04 ([2]; time 2.0 hrs): 4.7%
- Peak Area of test compound ([2]; time 3 hrs): 6259891.0 counts
- Peak Area of test compound ([2]; time 4 hrs): 3007853.1 counts
- % Unconverted Compound I.04 ([2]; time 4.0 hrs): 0.1%
- Peak Area of test compound ([2]; time 6 hrs): 904115.8 counts

Compound: CC(=O)O[C@@]12CO[C@@H]1C[C@H](O)[C@@]1(C)C(=O)[C@H](O)C3=C(C)[C@@H](OC(=O)[C@H](O)[C@@H](NC(=O)OC(C)(C)C)c4ccccc4)C[C@@](O)([C@@H](OC(=O)c4ccccc4)[C@H]21)C3(C)C [Docetaxel, docetaxel, reference compound]
- Solubility, visual clarity [1]: completely insoluble
- Solubility in water [3]: < 50 µg/mL
- Peak Area of docetaxel formed ([2]; time 0 hrs): 10447.0 counts
- Peak Area of docetaxel formed ([2]; time 0.5 hrs): 70713.8 counts
- Peak Area of docetaxel formed ([2]; time 1 hrs): 125083.0 counts
- Peak Area of docetaxel formed ([2]; time 2 hrs): 243846.6 counts
- Peak Area of docetaxel formed ([2]; time 3 hrs): 331134.0 counts
- Peak Area of docetaxel formed ([2]; time 4 hrs): 464924.3 counts
- Peak Area of docetaxel formed ([2]; time 6 hrs): 546298.2 counts

Compound: CC(=O)O[C@H]1C(=O)[C@@]2(C)[C@H]([C@H](OC(=O)c3ccccc3)[C@]3(O)C[C@H](OC(=O)[C@H](O)[C@@H](NC(=O)c4ccccc4)c4ccccc4)C(C)=C1C3(C)C)[C@]1(OC(C)=O)CO[C@@H]1C[C@@H]2O [paclitaxel]
- Solubility, visual clarity [1]: completely insoluble
- Solubility in water (in words) [3]: poorly soluble in water
